The record followed here is ChEMBL document CHEMBL5608186, “Design, synthesis and structure-activity relationships of novel non-ketolides: 9-Oxime clarithromycin featured with seven-to thirteen-atom-length diamine linkers at 3-OH” (Eur J Med Chem, 2024).

Values after ≈ are worked out from the molar mass of the structure shown.

In series [1] the test system is Streptococcus pneumoniae. The experiment in a line: Selectivity ratio of MBC for Streptococcus pneumoniae 07P390 harboring c-erm gene to MIC for Streptococcus pneumoniae 07P390 harboring c-erm gene. Format: functional.
Series [2] relates to Streptococcus pneumoniae. In words: Bactericidal activity against Streptococcus pneumoniae PU 09 harboring mef gene incubated for 16 to 20 hrs by CLSI based broth microdilution method. Format: functional. To be noted: time 16-20 hrs.
Series [3] deals with Staphylococcus aureus. In words: Antibacterial activity against methicillin-resistant Staphylococcus aureus PU 32 harboring i-ermA gene incubated for 16 to 20 hrs by CLSI based broth microdilution method. Format: functional. The settings on record: time 16-20 hrs. A general note: Broth dilution looks for growth in wells or tubes with falling amounts of substance.
The test system of series [4] is Streptococcus pneumoniae. In words: Selectivity ratio of MBC for Streptococcus pneumoniae PU 09 harboring mef gene to MIC for Streptococcus pneumoniae PU 09 harboring mef gene. Format: functional.
Series [5] deals with Staphylococcus aureus. The experiment in a line: Bactericidal activity against methicillin-resistant Staphylococcus aureus PU 20 harboring c-ermA gene incubated for 16 to 20 hrs by CLSI based broth microdilution method. Format: functional. To be noted: time 16-20 hrs.
Series [6] relates to Streptococcus pneumoniae. The experiment in a line: Antibacterial activity against Streptococcus pneumoniae PU 09 harboring mef gene incubated for 16 to 20 hrs by CLSI based broth microdilution method. Format: functional. The settings on record: time 16-20 hrs.
Series [7] concerns Streptococcus pyogenes. The experiment in a line: Selectivity ratio of MBC for Streptococcus pyogenes 01-968 harboring i-ermB gene to MIC for Streptococcus pyogenes 01-968 harboring i-ermB gene. Format: functional.
Series [8] deals with Streptococcus pneumoniae. In words: Antibacterial activity against Streptococcus pneumoniae 07P390 harboring c-erm gene incubated for 16 to 20 hrs by CLSI based broth microdilution method. Format: functional. The settings on record: time 16-20 hrs.
Series [9] has as its system Haemophilus influenzae. In words: Bactericidal activity against Haemophilus influenzae ATCC 49247 incubated for 16 to 20 hrs by CLSI based broth microdilution method. Format: functional. To be noted: time 16-20 hrs.
Series [10] concerns Streptococcus pneumoniae. The experiment in a line: Antibacterial activity against Streptococcus pneumoniae ATCC 49619 incubated for 16 to 20 hrs by CLSI based broth microdilution method. Format: functional. To be noted: time 16-20 hrs.
Series [11] concerns Streptococcus pneumoniae. The experiment in a line: Bactericidal activity against Streptococcus pneumoniae ATCC 49619 incubated for 16 to 20 hrs by CLSI based broth microdilution method. Format: functional. To be noted: time 16-20 hrs.
A short description of series [12]: Metabolic stability in human liver microsomes assessed as intrinsic clearance in liver at 1 uM incubated upto 60 mins in presence of NADPH by LC-MS/MS analysis. Format: ADME, Microsome. To be noted: read-out: CLH.
Series [13] has as its system Streptococcus pyogenes. The experiment in a line: Antibacterial activity against Streptococcus pyogenes 01-968 harboring i-ermB gene incubated for 16 to 20 hrs by CLSI based broth microdilution method. To be noted: time 16-20 hrs. Format: functional.
Series [14] relates to Staphylococcus aureus. The experiment in a line: Selectivity ratio of MBC for methicillin-resistant Staphylococcus aureus PU 32 harboring i-ermA gene to MIC for methicillin-resistant Staphylococcus aureus PU 32 harboring i-ermA gene. Format: functional.
Series [15] relates to Haemophilus influenzae. The experiment in a line: Antibacterial activity against Haemophilus influenzae ATCC 49247 incubated for 16 to 20 hrs by CLSI based broth microdilution method. The settings on record: time 16-20 hrs. Format: functional.
For series [16], the system named is Staphylococcus aureus. In words: Bactericidal activity against methicillin-resistant Staphylococcus aureus PU 32 harboring i-ermA gene incubated for 16 to 20 hrs by CLSI based broth microdilution method. Format: functional. The settings on record: time 16-20 hrs.
The nature of series [17]: Metabolic stability in rat liver microsomes assessed as unchanged drug at 1 uM incubated upto 60 mins in presence of NADPH by LC-MS/MS analysis. Format: ADME, Microsome. The settings on record: read-out: Stability. Background: Liver microsomes are a subcellular fraction often used to study metabolism.
For series [18], the system named is Streptococcus pyogenes. In words: Bactericidal activity against Streptococcus pyogenes 01-968 harboring i-ermB gene incubated for 16 to 20 hrs by CLSI based broth microdilution method. Format: functional. The settings on record: time 16-20 hrs.
A short description of series [19]: Metabolic stability in human liver microsomes assessed as half life at 1 uM incubated upto 60 mins in presence of NADPH by LC-MS/MS analysis. Format: ADME, Microsome.
In series [20] the test system is Streptococcus pneumoniae. The experiment in a line: Selectivity ratio of MBC for Streptococcus pneumoniae ATCC 49619 to MIC for Streptococcus pneumoniae ATCC 49619. Format: functional.
Series [21] deals with Staphylococcus aureus. The experiment in a line: Antibacterial activity against methicillin-resistant Staphylococcus aureus PU 20 harboring c-ermA gene incubated for 16 to 20 hrs by CLSI based broth microdilution method. Format: functional. To be noted: time 16-20 hrs.
Series [22] can be described thus: Metabolic stability in human liver microsomes assessed as unchanged drug at 1 uM incubated upto 60 mins in presence of NADPH by LC-MS/MS analysis. Format: ADME, Microsome. The settings on record: read-out: Stability.
Series [23] deals with Streptococcus pneumoniae. In words: Bactericidal activity against Streptococcus pneumoniae 07P390 harboring c-erm gene incubated for 16 to 20 hrs by CLSI based broth microdilution method. Format: functional. To be noted: time 16-20 hrs.
The subject of series [24] is Haemophilus influenzae. The experiment in a line: Selectivity ratio of MBC for Haemophilus influenzae ATCC 49247 to MIC for Haemophilus influenzae ATCC 49247. Format: functional.
The test system of series [25] is Escherichia coli. In words: Antibacterial activity against wild-type Escherichia coli SQ110 DTC incubated for 16 to 20 hrs by CLSI based broth microdilution method. Format: functional. To be noted: time 16-20 hrs.
A short description of series [26]: Inhibition of Escherichia coli DNA supercoiling assessed as reduction in protein synthesis by firefly luciferase gene assay. Format: functional.
The test system of series [27] is Escherichia coli. In words: Selectivity ratio of MIC for Escherichia coli SQ110 DTC harboring 23S rRNA A2058G mutant to MIC for wild-type Escherichia coli SQ110 DTC. Format: functional.
In the next series the test system is HepG2. In words: Cytotoxicity against human HepG2 cells assessed as cell viability at 5 to 50 uM incubated for 48 hrs by CCK8 assay. Format: toxicity, cell-based. The settings on record: hepg2, 48 h, dose 5-50 µM. In general terms: Tetrazolium dyes change colour on reduction, which living cells bring about.
Series [28] deals with Escherichia coli. In words: Selectivity ratio of MIC for Escherichia coli SQ110 DTC harboring Gyr A Ser83Leu mutant to MIC for wild-type Escherichia coli SQ110 DTC. Format: functional.
Series [29] deals with Escherichia coli. The experiment in a line: Antibacterial activity against Escherichia coli SQ110 DTC harboring 23S rRNA A2058G mutant incubated for 16 to 20 hrs by CLSI based broth microdilution method. Format: functional. To be noted: time 16-20 hrs.
For series [30], the system named is Escherichia coli. In words: Selectivity ratio of MIC for Escherichia coli SQ110 DTC harboring 23S rRNA A2058G/Gyr A Ser83Leu mutant to MIC for wild-type Escherichia coli SQ110 DTC. Format: functional.
For another series, the target named is DNA gyrase (Escherichia coli, UniProt P0AES4+P0AES6). The experiment in a line: Inhibition of Escherichia coli DNA gyrase using pBR322 DNA as substrate incubated for 30 mins by electrophoresis. Format: protein-complex assay.
Series [31] is described as follows: Metabolic stability in Escherichia coli SQ110 DTC assessed as unchanged drug at 5 to 10 times MIC measured after 60 mins by LC-MS/MS analysis. Format: ADME. The settings on record: Escherichia coli SQ110 DTC cells, read-out: Stability.
A further series deals with HEK-293T. The experiment in a line: Cytotoxicity against HEK293T cells assessed as cell viability at 5 to 50 uM incubated for 48 hrs by CCK8 assay. To be noted: human, dose 5-50 µM. Format: toxicity, cell-based.
Series [32] relates to Escherichia coli. The experiment in a line: Antibacterial activity against Escherichia coli SQ110 DTC harboring 23S rRNA A2058G/Gyr A Ser83Leu mutant incubated for 16 to 20 hrs by CLSI based broth microdilution method. Format: functional. To be noted: time 16-20 hrs.
Series [33] has as its system Escherichia coli. In words: Antibacterial activity against Escherichia coli SQ110 DTC harboring Gyr A Ser83Leu mutant incubated for 16 to 20 hrs by CLSI based broth microdilution method. Format: functional. The settings on record: time 16-20 hrs.

On to `CC[C@H]1OC(=O)[C@H](C)[C@@H](OC(=O)CCNCCCCCNc2cc3c(cc2F)c(=O)c(C(=O)O)cn3C2CC2)[C@H](C)[C@@H](O[C@@H]2O[C@H](C)C[C@H](N(C)C)[C@H]2O)[C@](C)(OC)C[C@@H](C)/C(=N\OC)[C@H](C)[C@H]2OC(=O)O[C@@]21C`, for which the Selectivity ratio is listed as 2 in the series on Streptococcus pneumoniae [1]; 2 with Streptococcus pneumoniae [4]; more than 8 in the series with Streptococcus pyogenes [7]; 8 in the series on Staphylococcus aureus [14]; 2 in the series on Streptococcus pneumoniae [20]; 1 with Haemophilus influenzae [24]. In addition, the MBC in the series with Streptococcus pneumoniae [2] was 1 µg/mL (≈ 0.956 µM); with Staphylococcus aureus [5], more than 256 µg/mL; against Haemophilus influenzae [9], 256 µg/mL (≈ 245 µM); with Streptococcus pneumoniae [11] it was 0.125 µg/mL (≈ 0.119 µM); with Staphylococcus aureus [16], 8 µg/mL (≈ 7.65 µM); against Streptococcus pyogenes [18], more than 0.062 µg/mL. The compound also displayed an MBC against Streptococcus pneumoniae [23] of 2 µg/mL (≈ 1.91 µM). Further, the MIC was 1 µg/mL (≈ 0.956 µM) against Staphylococcus aureus [3]; 0.5 µg/mL (≈ 0.478 µM) against Streptococcus pneumoniae [6]; 1 µg/mL (≈ 0.956 µM) in the series with Streptococcus pneumoniae [8]; 0.062 µg/mL (≈ 0.0593 µM) against Streptococcus pneumoniae [10]; not above 0.008 µg/mL with Streptococcus pyogenes [13]; 256 µg/mL (≈ 245 µM) in the series on Haemophilus influenzae [15]. Moreover, the MIC against Staphylococcus aureus [21] was 128 µg/mL (≈ 122 µM). For the same compound, the CLint scaled at 1 µM in series [12] was determined as 21.8 mL/min/kg. Also, the remaining at 1 h, 1 µM in series [17] was determined as 98.4%; in series [22] it was 42%. Besides, the half-life at 1 µM in series [19] came to 57.3 min.

Turning to `CC[C@H]1OC(=O)[C@H](C)[C@@H](OC(=O)CCNCCCCNc2cc3c(cc2F)c(=O)c(C(=O)O)cn3C2CC2)[C@H](C)[C@@H](O[C@@H]2O[C@H](C)C[C@H](N(C)C)[C@H]2O)[C@](C)(OC)C[C@@H](C)/C(=N\OCC#Cc2cncc(C(=O)NC)c2)[C@H](C)[C@H]2OC(=O)O[C@@]21C`, the Selectivity ratio in the series with Streptococcus pneumoniae [1] is 8; with Escherichia coli [27] it was 1; in the series on Streptococcus pyogenes [7], more than 8; in the series with Escherichia coli [28], 2; in the series with Escherichia coli [30], more than 32; in the series with Staphylococcus aureus [14], 1. The figures for the Selectivity ratio result in the series with Streptococcus pneumoniae [20] and in the series on Haemophilus influenzae [24] were “>=1” and 2, respectively. The MIC against Escherichia coli [25] was 4 µg/mL (≈ 3.36 µM); against Staphylococcus aureus [3], 32 µg/mL (≈ 26.9 µM); with Streptococcus pneumoniae [6], not above 0.008 µg/mL; in the series with Streptococcus pneumoniae [8], 0.12 µg/mL (≈ 0.101 µM); against Streptococcus pneumoniae [10], not above 0.008 µg/mL; in the series with Escherichia coli [29], 4 µg/mL (≈ 3.36 µM). Moreover, the MIC in the series with Streptococcus pyogenes [13] was 0.06 µg/mL (≈ 0.0504 µM); in the series with Haemophilus influenzae [15], 2 µg/mL (≈ 1.68 µM); with Staphylococcus aureus [21], more than 256 µg/mL; against Escherichia coli [32], more than 128 µg/mL; with Escherichia coli [33], 8 µg/mL (≈ 6.72 µM). The MBC in the series with Streptococcus pneumoniae [2] was 0.008 µg/mL (≈ 0.00672 µM); in the series on Staphylococcus aureus [5] it was more than 256 µg/mL; against Haemophilus influenzae [9], 4 µg/mL (≈ 3.36 µM); against Streptococcus pneumoniae [11] it was 0.008 µg/mL (≈ 0.00672 µM); against Staphylococcus aureus [16], 32 µg/mL (≈ 26.9 µM); against Streptococcus pyogenes [18], more than 0.5 µg/mL. The compound further had an MBC in the series with Streptococcus pneumoniae [23] of 1 µg/mL (≈ 0.84 µM). In addition, the IC50 came to 740 nM in [26] and 11.9 µM against DNA gyrase. In addition, the Activity result in the series on HepG2 and in the series on HEK-293T was “Non-Toxic” in each case. Moreover, the CLint scaled at 1 µM in series [12] amounted to 2.7 mL/min/kg. In addition, the remaining at 1 h in [31] was 84.3%. For the same compound, the remaining at 1 h, 1 µM in series [17] amounted to 70.6%; in series [22], 91.3%. For the same compound, the half-life at 1 µM in series [19] turned out to be 459 min.

With `CCOc1ccc2ccc(=O)oc2c1`, the CLint scaled at 1 µM in [12] was determined as 58.7 mL/min/kg. Also, the remaining at 1 h, 1 µM in series [17] came out at 1%; in series [22], 14.1%. Besides, the half-life at 1 µM in [19] was determined as 21.2 min.

What is called half-life is the time in which the quantity being followed falls by half. For orientation: IC50 means the concentration at which inhibition is half-maximal.
